Biological target: T1, Androgen Receptor protein in human LnCaP cells (Homo sapiens, UniProt P10275, T878A)
T1 construct: the AR gene was modified, using CRISPR/Cas9 editing, so the expressed AR protein included an 11 amino acid HiBiT tag; endogenous in cells; host or cells: clonal LnCaP derived cell line, endogenous AR gene edited by CRISPR/Cas9
T1 sequence (P10275 1-920 T878A): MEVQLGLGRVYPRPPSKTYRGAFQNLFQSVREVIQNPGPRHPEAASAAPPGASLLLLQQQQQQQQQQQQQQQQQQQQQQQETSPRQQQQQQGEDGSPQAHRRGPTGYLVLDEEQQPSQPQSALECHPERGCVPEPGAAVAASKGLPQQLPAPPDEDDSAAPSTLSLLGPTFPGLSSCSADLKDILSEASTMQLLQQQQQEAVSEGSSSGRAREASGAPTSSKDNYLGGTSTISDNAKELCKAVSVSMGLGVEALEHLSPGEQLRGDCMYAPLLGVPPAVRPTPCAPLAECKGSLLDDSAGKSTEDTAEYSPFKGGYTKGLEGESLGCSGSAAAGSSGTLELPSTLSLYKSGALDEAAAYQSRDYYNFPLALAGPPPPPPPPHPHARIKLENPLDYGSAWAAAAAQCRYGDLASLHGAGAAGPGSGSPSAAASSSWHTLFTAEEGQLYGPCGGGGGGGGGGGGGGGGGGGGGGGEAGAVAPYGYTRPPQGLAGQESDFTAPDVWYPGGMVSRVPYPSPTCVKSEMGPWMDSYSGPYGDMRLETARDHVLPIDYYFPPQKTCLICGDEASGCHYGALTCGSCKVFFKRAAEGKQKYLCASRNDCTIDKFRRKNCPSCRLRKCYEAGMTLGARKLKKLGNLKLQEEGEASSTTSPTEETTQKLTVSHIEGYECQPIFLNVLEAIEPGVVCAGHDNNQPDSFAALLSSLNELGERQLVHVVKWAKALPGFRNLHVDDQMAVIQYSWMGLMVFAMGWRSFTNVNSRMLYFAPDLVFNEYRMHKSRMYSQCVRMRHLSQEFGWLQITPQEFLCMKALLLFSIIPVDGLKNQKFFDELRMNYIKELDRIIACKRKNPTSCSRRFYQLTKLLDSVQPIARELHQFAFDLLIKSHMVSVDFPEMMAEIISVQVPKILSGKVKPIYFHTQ
Experiment: Androgen Receptor Degradation Assay (Nano-Glo HiBiT, LnCaP cells)
Assay type: cell-based
Details: 18 h, HiBiT-tagged AR LnCaP cells, 18 h incubation, fitted curve asymptote maximum of degradation, read-out: mean asymptote max
Experimental: Degradation of Androgen Receptor protein in human LnCaP cells treated with PROTACs was quantified using the Nano-Glo® HiBiT Lytic Detection System (Promega) in 384 well assay plate format. A clonal LnCaP derived cell line was first established in which the AR gene was modified, using CRISPR/Cas9 editing, so the expressed AR protein included an 11 amino acid HiBiT tag at its amino-terminus. 10 mM DMSO stock solutions of PROTACs were prepared and diluted across an 11 concentration, 3 fold increment range, and 25 nL dispensed into a white opaque bottomed 384 well assay plate (Thermofisher) using an acoustic ECHO dispenser (Labcyte). Cells were grown in cell culture medium (RPMI 1640 supplemented with 15% FBS, penicillin 50U/mL and streptomycin 50 ug/mL (Thermofisher)). For the assay, cells were detached from flask and resuspended with assay medium (FluoroBrite™ DMEM supplemented with 10% heat inactivated FBS, penicillin 50U/mL and streptomycin 50 ug/mL (Thermofisher)). The cell suspension was centrifuged at 400 g for 5 min and the pellet resuspended in assay medium. 25 μL of cell suspension containing 10,000 cells was dispensed into each well of the assay plate containing a serial dilution of test compounds, which was then incubated for 18 h at 37° C./5% CO2. Control wells were included on each assay plate, with assay medium without cells being the no AR remaining 100% effect control, and cells treated with DMSO vehicle only, without PROTAC, the 0% effect control. 25 μL of Nano-Glo® HiBiT lysis buffer supplemented with LgBiT protein and Nano-Glo® substrate (Promega) was added to each well and the plate shaken at 500 rpm for 10 min at room temperature. The intensity of luminescence was measured using a PHERAstar microplate reader (BMG Labtech) and the % AR protein remaining in each well calculated by normalising the raw luminescence value to the above control wells. Parameters corresponding to the potency and efficacy estimates of the PROTACs were obtained from these normalised luminescence values using software (IDBS ActivityBase). These included the DC50 (concentration at which 50% of protein was degraded in M) and the Dmax (maximal degradation, in %) estimates. Two versions of the DC50, called relative DC50 and absolute DC50, were generated. These are the inflection point of a fitted 4 parameter sigmoidal response curve and the interpolated concentration of PROTAC corresponding to 50% of the protein being degraded, respectively. The corresponding pDC50 is reported as −log10(relative […]). The Dmax parameter was the maximum experimentally observed degradation and the asymptote max parameter the fitted response curve asymptote maximum.

Row | Compound | Dmax [%]
1 | CC1(C)[C@H](NC(=O)c2ccc(N3CCC(CN4CCC(n5ccc6c(N7CCC(=O)NC7=O)cc(F)cc65)CC4)CC3)c(F)c2)C(C)(C)[C@H]1Oc1ccc(C#N)c2ncccc12 [Example 32, N-((1r,3r)-3-((8-Cyanoquinolin-5-yl)oxy)-2,2,4,4-tetramethylcyclobutyl)-4-(4-((4-(4-(2,4-dioxotetrahydropyrimidin-1(2H)-yl)-6-fluoro-1H-indol-1-yl)piperidin-1-yl)methyl)piperidin-1-yl)-3-fluorobenzamide] | ≥ 50
2 | CC1(C)[C@H](NC(=O)c2ccc(N3CCC(CN4CC[C@H](n5ncc6c(N7CCC(=O)NC7=O)cccc65)C4)CC3)c(F)c2)C(C)(C)[C@H]1Oc1ccc(C#N)c2ncccc12 [Example 37, N-((1r,3r)-3-((8-Cyanoquinolin-5-yl)oxy)-2,2,4,4-tetramethylcyclobutyl)-4-(4-(((S)-3-(4-(2,4-dioxotetrahydropyrimidin-1(2H)-yl)-1H-indazol-1-yl)pyrrolidin-1-yl)methyl)piperidin-1-yl)-3-fluorobenzamide] | ≥ 50
3 | CC1(C)[C@H](NC(=O)c2ccc(N3CCC(CN4CCC(n5ncc6c(N7CCC(=O)NC7=O)nccc65)CC4)CC3)c(F)c2)C(C)(C)[C@H]1Oc1ccc(C#N)c2ncccc12 [Example 39, N-((1r,3r)-3-((8-Cyanoquinolin-5-yl)oxy)-2,2,4,4-tetramethylcyclobutyl)-4-(4-((4-(4-(2,4-dioxotetrahydropyrimidin-1(2H)-yl)-1H-pyrazolo[4,3-c]pyridin-1-yl)piperidin-1-yl)methyl)piperidin-1-yl)-3-fluorobenzamide] | ≥ 50
4 | COc1cc(O[C@H]2C(C)(C)[C@H](NC(=O)c3ccc(N4CCC(CN5CC[C@@H](n6ncc7c(N8CCC(=O)NC8=O)cccc76)[C@@H](F)C5)CC4)c(F)c3)C2(C)C)ccc1C#N [Example 27, N-((1r,3r)-3-(4-Cyano-3-methoxyphenoxy)-2,2,4,4-tetramethylcyclobutyl)-4-(4-(((3,4R)-4-(4-(2,4-dioxotetrahydropyrimidin-1(2H)-yl)-1H-indazol-1-yl)-3-fluoropiperidin-1-yl)methyl)piperidin-1-yl)-3-fluorobenzamide] | ≥ 50
5 | CC1(C)[C@H](NC(=O)c2ccc(N3CCC(CN4CCC(n5ccc6c(N7CCC(=O)NC7=O)ncnc65)CC4)CC3)cc2)C(C)(C)[C@H]1Oc1ccc(C#N)c2ncccc12 [Example 28, N-((1r,3r)-3-((8-Cyanoquinolin-5-yl)oxy)-2,2,4,4-tetramethylcyclobutyl)-4-(4-((4-(4-(2,4-dioxotetrahydropyrimidin-1(2H)-yl)-7H-pyrrolo[2,3-d]pyrimidin-7-yl)piperidin-1-yl)methyl)piperidin-1-yl)benzamide] | ≥ 50
6 | CC1(C)[C@H](NC(=O)c2ccc(N3CC[C@H](CN4CCC(n5ncc6c(N7CCC(=O)NC7=O)cccc65)CC4)C3)c(F)c2)C(C)(C)[C@H]1Oc1ccc(C#N)c2ncccc12 [Example 34, N-((1r,3R)-3-((8-Cyanoquinolin-5-yl)oxy)-2,2,4,4-tetramethylcyclobutyl)-4-((R)-3-((4-(4-(2,4-dioxotetrahydropyrimidin-1(2H)-yl)-1H-indazol-1-yl)piperidin-1-yl)methyl)pyrrolidin-1-yl)-3-fluorobenzamide] | ≥ 50
7 | COc1cc(O[C@H]2C(C)(C)[C@H](NC(=O)c3ccc(N4CCC(CN5CCC(n6ncc7c(N8CCC(=O)NC8=O)cccc76)CC5)CC4)cc3)C2(C)C)ccc1C#N [Example 15, N-((1r,3r)-3-(4-Cyano-3-methoxyphenoxy)-2,2,4,4-tetramethylcyclobutyl)-4-(4-((4-(4-(2,4-dioxotetrahydropyrimidin-1(2H)-yl)-1H-indazol-1-yl)piperidin-1-yl)methyl)piperidin-1-yl)benzamide] | ≥ 50

Now from value to compound:

Row | Dmax [%] | Compound
8 | ≥ 50 | CC1(C)[C@H](NC(=O)c2ccc(N3CCC(CN4CC[C@@H](n5ncc6c(N7CCC(=O)NC7=O)cccc65)[C@@H](F)C4)CC3)c(F)c2)C(C)(C)[C@H]1Oc1ccc(C#N)c2ncccc12 [Example 45, N-((1r,3r)-3-((8-Cyanoquinolin-5-yl)oxy)-2,2,4,4-tetramethylcyclobutyl)-4-(4-(((35,4R)-4-(4-(2,4-dioxotetrahydropyrimidin-1(2H)-yl)-1H-indazol-1-yl)-3-fluoropiperidin-1-yl)methyl)piperidin-1-yl)-3-fluorobenzamide]
9 | ≥ 50 | CC1(C)[C@H](NC(=O)c2ccc(N3CCC(CN4CCC(n5ccc6c(N7CCC(=O)NC7=O)ncnc65)CC4)CC3)c(F)c2)C(C)(C)[C@H]1Oc1ccc(C#N)c2ncccc12 [Example 47, N-((1r,3r)-3-((8-Cyanoquinolin-5-yl)oxy)-2,2,4,4-tetramethylcyclobutyl)-4-(4-((4-(4-(2,4-dioxotetrahydropyrimidin-1(2H)-yl)-7H-pyrrolo[2,3-d]pyrimidin-7-yl)piperidin-1-yl)methyl)piperidin-1-yl)-3-fluorobenzamide]
10 | ≥ 50 | CC1(C)[C@H](NC(=O)c2ccc(N3CCC(CN4CCC(n5ncc6c(N7CCC(=O)NC7=O)cc(Cl)cc65)CC4)CC3)c(F)c2)C(C)(C)[C@H]1Oc1ccc(C#N)c2ncccc12 [Example 41, 4-(4-((4-(6-Chloro-4-(2,4-dioxotetrahydropyrimidin-1(2H)-yl)-1H-indazol-1-yl)piperidin-1-yl)methyl)piperidin-1-yl)-/-((1r,3r)-3-((8-cyanoquinolin-5-yl)oxy)-2,2,4,4-tetramethylcyclobutyl)-3-fluorobenzamide]
11 | ≥ 50 | CC1(C)[C@H](NC(=O)c2ccc(N3CCC(O)(CN4CCC(n5ncc6c(N7CCC(=O)NC7=O)cccc65)CC4)CC3)c(F)c2)C(C)(C)[C@H]1Oc1ccc(C#N)c2ncccc12 [Example 48, N-((1r,3r)-3-((8-Cyanoquinolin-5-yl)oxy)-2,2,4,4-tetramethylcyclobutyl)-4-(4-((4-(4-(2,4-dioxotetrahydropyrimidin-1(2H)-yl)-1H-indazol-1-yl)piperidin-1-yl)methyl)-4-hydroxypiperidin-1-yl)-3-fluorobenzamide]
12 | ≥ 50 | CC1(C)[C@H](NC(=O)c2ccc(N3CCC(CN4CCC(n5ncc6c(N7CCC(=O)NC7=O)cc(C(F)(F)F)cc65)CC4)CC3)c(F)c2)C(C)(C)[C@H]1Oc1ccc(C#N)c2ncccc12 [Example 42, N-((1r,3r)-3-((8-Cyanoquinolin-5-yl)oxy)-2,2,4,4-tetramethylcyclobutyl)-4-(4-((4-(4-(2,4-dioxotetrahydropyrimidin-1(2H)-yl)-6-(trifluoromethyl)-1H-indazol-1-yl)piperidin-1-yl)methyl)piperidin-1-yl)-3-fluorobenzamide]
